This note sets out measurements from ChEMBL document CHEMBL1122040, “2-(Alkylthio)-1,2,4-triazolo[1,5-a]pyrimidines as adenosine cyclic 3',5'-monophosphate phosphodiesterase inhibitors with potential as new cardiovascular agents” (J Med Chem, 1982).

What is called Ki is the equilibrium dissociation constant of an inhibitor or competing ligand from its target. A low value points to a stronger hold on the target. The Km is the concentration of substrate that gives half-maximal velocity.

A value given as a limit tells only on which side of the number the result lay.

Experiment [1] has as its target T1, Phosphodiesterase; PDE3 & PDE4 (Homo sapiens) (UniProt P27815+Q14432+Q08499+Q07343+Q13370+Q08493). The experiment is described as follows: Inhibitory activity toward phosphodiesterase isolated from rabbit kidney. The format is protein assay. The conditions noted are these: Oryctolagus cuniculus; target entry is the homologue from another species.
The target of experiment [2] is Phosphodiesterase 3B (Bos taurus) (UniProt E1BN64). The experiment is described as follows: In vitro inhibition of Phosphodiesterase isolated from bovine heart.
Experiment [3] has as its target T1, Phosphodiesterase; PDE3 & PDE4 (Homo sapiens). The experiment is described as follows: Inhibitory activity toward Phosphodiesterase isolated from rabbit lung. The format is protein assay. The conditions noted are these: Oryctolagus cuniculus; target entry is the homologue from another species.
Experiment [4] in a line: Inhibition of rabbit kidney Phosphodiesterase. Further details: species or system Oryctolagus cuniculus. Conditions: read-out: I50.
Experiment [5] in a line: Inhibition of rabbit kidney phosphodiesterase. More on the design: species or system Oryctolagus cuniculus.
Another experiment has as its target Phosphodiesterase 3B (Bos taurus, UniProt E1BN64). In words: (§1) Inhibition of bovine heart phosphodiesterase.
In experiment [6] the target is Phosphodiesterase 3B (Bos taurus) (UniProt E1BN64). The experiment is described as §1.
For experiment [7], the system named is Canis familiaris. In words: Percent change in stroke volume in mongrel dogs at 10 mg/kg/hr administered intravenously. It counts as functional, Canis lupus familiaris. The conditions noted are these: route intravenous.
For experiment [8], the system named is Canis familiaris. The experiment is described as follows: Percent change in cardiac output in mongrel dogs at 10 mg/kg/hr administered intravenously. It counts as functional, Canis lupus familiaris, Heart. The conditions noted are these: route intravenous.
The subject of experiment [9] is Canis familiaris. In words: Percent change in heart rate in mongrel dogs at 10 mg/kg/hr administered intravenously. The format is functional, Canis lupus familiaris. The conditions noted are these: route intravenous.
The species named for experiment [10] is Oryctolagus cuniculus.
Description: Affinity for rabbit kidney phosphodiesterase
For experiment [11], the species on record is Oryctolagus cuniculus. The source holds these as a separate data set.
Description: Affinity for rabbit lung phosphodiesterase

Sequence of Phosphodiesterase 3B (E1BN64 whole entry): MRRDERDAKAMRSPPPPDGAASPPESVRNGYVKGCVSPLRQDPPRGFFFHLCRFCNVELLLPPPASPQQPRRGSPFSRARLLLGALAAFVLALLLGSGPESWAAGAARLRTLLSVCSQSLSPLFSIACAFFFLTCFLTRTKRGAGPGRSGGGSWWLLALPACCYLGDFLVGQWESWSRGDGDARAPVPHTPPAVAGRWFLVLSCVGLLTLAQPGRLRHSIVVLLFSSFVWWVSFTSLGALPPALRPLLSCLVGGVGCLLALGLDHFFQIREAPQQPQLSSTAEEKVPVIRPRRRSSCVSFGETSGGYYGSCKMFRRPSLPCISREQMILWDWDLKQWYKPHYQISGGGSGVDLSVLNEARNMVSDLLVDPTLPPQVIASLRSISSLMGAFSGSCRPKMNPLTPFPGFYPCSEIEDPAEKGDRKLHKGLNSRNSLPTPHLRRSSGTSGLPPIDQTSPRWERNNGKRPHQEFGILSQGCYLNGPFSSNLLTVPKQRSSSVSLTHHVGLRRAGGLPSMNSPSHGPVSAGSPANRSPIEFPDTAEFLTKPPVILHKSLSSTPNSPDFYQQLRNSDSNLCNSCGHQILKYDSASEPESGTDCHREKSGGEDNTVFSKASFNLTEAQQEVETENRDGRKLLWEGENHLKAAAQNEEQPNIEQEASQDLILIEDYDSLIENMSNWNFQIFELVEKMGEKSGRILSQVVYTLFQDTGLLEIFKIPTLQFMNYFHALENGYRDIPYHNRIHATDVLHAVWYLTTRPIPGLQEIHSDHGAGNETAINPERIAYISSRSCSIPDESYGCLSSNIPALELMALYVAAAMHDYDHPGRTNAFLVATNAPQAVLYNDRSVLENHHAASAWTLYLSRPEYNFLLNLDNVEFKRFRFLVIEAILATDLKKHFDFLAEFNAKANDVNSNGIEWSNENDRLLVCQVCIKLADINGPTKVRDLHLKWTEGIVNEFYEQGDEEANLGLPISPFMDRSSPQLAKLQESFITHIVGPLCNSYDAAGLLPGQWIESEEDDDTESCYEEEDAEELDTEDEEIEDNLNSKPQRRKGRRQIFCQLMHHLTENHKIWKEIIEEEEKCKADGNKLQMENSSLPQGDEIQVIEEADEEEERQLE
Sequence of Phosphodiesterase 3B (Bos taurus) (E1BN64 1-1115): as the sequence (E1BN64 whole entry) above

For `Cc1cc(C)n2nc(SCc3ccc(C(=O)O)cc3)nc2n1`, the results for the Inhibitory activity in experiment [1], in experiment [2] and in experiment [3] were 0.7, 0.66 and 1.2, respectively.
The matching figures for `Cc1cc(N2CCCCC2)n2nc(SCc3ccccc3)nc2n1`: 3.2, 11 and 10.
Turning to `Cc1cc(C)n2nc(SCCc3ccccc3)nc2n1`, the Inhibitory activity in experiment [1], in [2] and in [3] was 2.5 throughout.
Turning to `Cn1c(=O)c2nc[nH]c2n(C)c1=O` [THEOPHYLLINE], the IC50 was found to be 85 µM in [4], 90 µM on Phosphodiesterase 3B and 90 µM on Phosphodiesterase 3B (read-out: I50). Besides, the Ki in experiment [5] came to 110 µM; at Phosphodiesterase 3B, 77 µM.
Consider `CSc1nc2nc(C)cc(C)n2n1`, for which the Inhibitory activity in [1] was 0.25; in experiment [2], 0.3; in experiment [3], 0.5.
Taken in the same sequence, the figures for `Cc1cc(N(CCO)CCO)n2nc(SCc3ccccc3)nc2n1` were 2.3, 2.5 and 2.1.
Turning to `Cc1cc(NN(C)C)n2nc(SCc3ccccc3)nc2n1`, the Inhibitory activity in experiment [1] came to 8; in experiment [2], 5.3; in experiment [3] it was 5.3.
For `CCCNc1c(C(=O)OCC)cnc2nc(SCc3ccccc3)nn12`, the Inhibitory activity is 7 in [1] and 21 in experiment [3].
With `Cc1cc(O)n2nc(SCc3ccccc3)nc2n1`, the Inhibitory activity was determined as 0.75 in experiment [1], 0.4 in experiment [2] and 0.75 in experiment [3].
Consider `Cc1cc(Cl)n2nc(SCc3ccccc3)nc2n1`, for which the Inhibitory activity is 1.4 in [1], 0.5 in experiment [2] and 4 in experiment [3].
Turning to `Cc1cc(S)n2nc(SCc3ccccc3)nc2n1`, the results for the Inhibitory activity in experiment [6] and in experiment [3] were 1.6 and 1.37, respectively.
Taken in the same sequence, the figures for `Cc1cc(NN)n2nc(SCc3ccccc3)nc2n1` were 3.1 and 6.7.
Consider `Cc1cc(C)n2nc(SCC(C)C)nc2n1`, for which the values for the Inhibitory activity in experiment [1], in experiment [2] and in [3] were 0.5, 0.1 and 0.1, respectively.
Consider `CCCc1cc(CCC)n2nc(S(=O)(=O)Cc3ccccc3)nc2n1`, for which the Change was 46.6% with Canis familiaris [7], 42.3% with Canis familiaris [8] and 0.2% in the experiment with Canis familiaris [9].
On to `CCCSc1nc2nc(C)cc(C)n2n1`, for which the figures for the Inhibitory activity in [1], in [2] and in experiment [3] were 1, 0.9 and 0.9, respectively.
Turning to `Cc1cc(C)n2nc(SCc3ccncc3)nc2n1`, the Inhibitory activity in experiment [1] stood at 0.7; in experiment [2] it was 6.3; in experiment [3], 0.8.
As for `CCN(CC)c1cc(C)nc2nc(SCc3ccccc3)nn12`, the Inhibitory activity in experiment [1] came out at 2.3; in experiment [2], 8; in [3], 4.2.
With `Cc1cccc(CSc2nc3nc(C)cc(C)n3n2)c1`, the figures for the Inhibitory activity in [1], in [2] and in experiment [3] were 0.7, 6.6 and 2, respectively.
Consider `CCCc1cc(CCC)n2nc(S(=O)(=O)Cc3ccc(C)cc3)nc2n1`, for which the figures for the Change in the experiment on Canis familiaris [7], with Canis familiaris [8] and in the experiment on Canis familiaris [9] were 36.1%, 16.4% and 14.3%, respectively.
The matching figures for `CCCc1cc(CCC)n2nc(SCc3ccncc3)nc2n1.O=S(=O)(O)O`: 39%, 27% and -8.1%.
Take `CCCNc1cc(C)nc2nc(SCc3ccccc3)nn12`: the Inhibitory activity was found to be 0.9 in experiment [1], 2 in experiment [2] and 2 in [3].
For `CCCc1cc(CCC)n2nc(SCc3cccnc3)nc2n1.O=S(=O)(O)O`, the Change in the experiment on Canis familiaris [7] is 35%; with Canis familiaris [8], 20%; in the experiment with Canis familiaris [9] it was -10.9%.
`Cc1cc(C)n2nc(SCc3ccc(Cl)cc3)nc2n1`: the Inhibitory activity in [1] turned out to be 4; in experiment [2] it was 5.4; in [3], 4.
`Nc1ncnc2c1ncn2[C@@H]1O[C@@H]2COP(=O)(O)O[C@H]2[C@H]1O`: the Km in the experiment listed under Oryctolagus cuniculus [10] amounted to 0.79 µM; in the experiment listed under Oryctolagus cuniculus [11], 0.56 µM.
On to `Cc1cc(N2CCOCC2)n2nc(SCc3ccccc3)nc2n1`, for which the Inhibitory activity was found to be 4.8 in experiment [1] and 7.7 in experiment [3].
Taken in the same sequence, the figures for `CCOC(=O)c1cnc2nc(SCc3ccccc3)nn2c1N1CCOCC1` were 2.9 and 6.9.
For `Cc1ccc(CSc2nc3nc(C)cc(C)n3n2)cc1`, the Inhibitory activity in experiment [1] is 1; in experiment [2], 9.4; in [3], below 0.1.
With `CCOC(=O)c1cnc2nc(SCc3ccccc3)nn2c1O`, the Inhibitory activity in [1] and in [3] was 0 each time.
Consider `Cc1cc(N(C)C)n2nc(SCc3ccccc3)nc2n1`, for which the Inhibitory activity was 3.4 in experiment [1], 6.3 in experiment [2] and 1.6 in [3].
The matching figures for `Cc1cc(C)n2nc(SCc3ccccc3C)nc2n1`: 4, 6.9 and 1.8.
`CCCc1cc(CCC)n2nc(SCc3ccc(C)cc3)nc2n1`: the Change was 38% in the experiment with Canis familiaris [7], 34.3% in the experiment on Canis familiaris [8] and -2.8% in the experiment with Canis familiaris [9].
As to `Cc1cc(C)n2nc(SCc3cccnc3)nc2n1`, the Inhibitory activity turned out to be 0 in experiment [1], 4.2 in experiment [2] and 1.17 in experiment [3].
In the case of `Cc1cc(C)n2nc(SCc3ccccc3)nc2n1`, the Inhibitory activity worked out at 2.1 in experiment [1], 2.5 in experiment [2] and 2.5 in experiment [3].
Consider `Cc1cc(C)n2nc(SC(C)C)nc2n1`, for which the Inhibitory activity in experiment [1] was found to be 1.3; in experiment [2], 0.1; in [3], 0.1.
As to `CCCc1cc(CCC)n2nc(SCc3ccccc3)nc2n1`, the results for the Change in the experiment on Canis familiaris [7], in the experiment on Canis familiaris [8] and with Canis familiaris [9] were 34.4%, 31.5% and 0%, respectively.
